These results are taken from BindingDB's records for doi:10.1021/jm00095a029 (Warner-Lambert, 1992).

For this test, the system named is Endothelin A receptor. As to the kind of experiment: ChEBML_63192.

Structures are written as SMILES. Non-standard residues stand in square brackets, D forms with d. Residues, ends and D or L forms follow the SMILES beside them.

In turn, `CC[C@H](C)[C@H](NC(=O)[C@H](CC(=O)O)NC(=O)[C@H](CC(C)C)NC(=O)[C@@H](Cc1ccc(O)cc1)NC(C)=O)C(=O)N[C@H](C(=O)N[C@@H](Cc1c[nH]c2ccccc12)C(=O)O)[C@@H](C)CC` (Ac-[dY]LDIIW-OH) gave a half-inhibitory concentration (IC50) of 400 nM.

A word on the IC50: it is the point on the concentration scale where inhibition reaches its midpoint. A high value points to weaker potency in that assay.
